Values joined by “and” are separate entries in the source; they are usually repeats but may differ in a detail not shown here. Equal values may be shown once. Toxic doses and inconclusive results are not listed.
Test system: BDF1 mice, L1210 leukemia sc, survival T/C
Assay: NCI In Vivo Anticancer Drug Screen. Data for tumor model L1210 Leukemia (subcutaneous) in B6D2F1 (BDF1) mice
Details: endpoint: median survival time, higher = longer survival
Method: The antitumor activity of compounds was measured in mice bearing transplantable tumors. Survival or tumor size were measured and the results are expressed as the measurement made in the treated group (T) divided by the measurement made in the vehicle treated control group (C). The tumor model used in this assay is L1210 Leukemia (subcutaneous) in B6D2F1 (BDF1) mice

[1] = dose: 23.0 mg/kg/injection, schedule: Q01DX Z (sc), vehicle: methylcellulose (MC)
[2] = dose: 65.0 mg/kg/injection, schedule: Q01DX Z (sc), vehicle: methylcellulose (MC)

Structure (SMILES): Cn1cc(NC(=O)c2cc(NC(=O)CN=C(N)N)cn2C)cc1C(=O)NCCC(=N)N
- T/C (dose: 6.0 mg/kg/injection, schedule: Q01DX Z (sc), vehicle: methylcellulose (MC)): 100 % of control
- T/C (dose: 12.0 mg/kg/injection, schedule: Q01DX Z (sc), vehicle: methylcellulose (MC)): 100 % of control
- T/C (dose: 24.0 mg/kg/injection, schedule: Q01DX Z (sc), vehicle: methylcellulose (MC)): 100 % of control

Structure (SMILES): CS(=O)(=O)OCCCCOS(C)(=O)=O
- T/C (dose: 6.25 mg/kg/injection, schedule: Q01DX009 (ip), vehicle: Klucel (hydroxypropylcellulose) (HPC)): 93 % of control
- T/C (dose: 6.25 mg/kg/injection, schedule: Q01DX009 (sc), vehicle: Klucel (hydroxypropylcellulose) (HPC)): 97 % of control
- T/C (dose: 12.5 mg/kg/injection, schedule: Q01DX009 (ip), vehicle: Klucel (hydroxypropylcellulose) (HPC)): 103 % of control
- T/C (dose: 12.5 mg/kg/injection, schedule: Q01DX009 (sc), vehicle: Klucel (hydroxypropylcellulose) (HPC)): 96 % of control
- T/C [1]: 103 % of control
- T/C (dose: 25.0 mg/kg/injection, schedule: Q01DX009 (ip), vehicle: Klucel (hydroxypropylcellulose) (HPC)): 106 % of control
- T/C (dose: 25.0 mg/kg/injection, schedule: Q01DX009 (sc), vehicle: Klucel (hydroxypropylcellulose) (HPC)): 105 % of control
- T/C (dose: 47.0 mg/kg/injection, schedule: Q01DX Z (sc), vehicle: methylcellulose (MC)): 105 % of control
- T/C (dose: 50.0 mg/kg/injection, schedule: Q01DX009 (ip), vehicle: Klucel (hydroxypropylcellulose) (HPC)): 101 % of control
- T/C (dose: 50.0 mg/kg/injection, schedule: Q01DX009 (sc), vehicle: Klucel (hydroxypropylcellulose) (HPC)): 96 % of control
- T/C [2]: 96 % of control
- T/C (dose: 78.0 mg/kg/injection, schedule: Q01DX Z (sc), vehicle: methylcellulose (MC)): 110 % of control
- T/C (dose: 108.0 mg/kg/injection, schedule: Q01DX Z (sc), vehicle: methylcellulose (MC)): 96 % of control
- T/C (dose: 130.0 mg/kg/injection, schedule: Q01DX Z (sc), vehicle: methylcellulose (MC)): 100 % of control
- T/C (dose: 180.0 mg/kg/injection, schedule: Q01DX Z (sc), vehicle: methylcellulose (MC)): 103 % of control
- T/C (dose: 300.0 mg/kg/injection, schedule: Q01DX Z (sc), vehicle: methylcellulose (MC)): 100 % of control

Structure (SMILES): CC(=O)Nc1ccc2nc3ccc(NC(C)=O)cc3[n+](-c3ccccc3)c2c1
- T/C [1]: 105 % of control
- T/C [2]: 105 % of control

Structure (SMILES): NC(=O)N(CCCl)N=O
- T/C (dose: 0.39 mg/kg/injection, schedule: Q01DX Z (sc), vehicle: methylcellulose (MC)): 123 % of control
- T/C (dose: 0.65 mg/kg/injection, schedule: Q01DX Z (sc), vehicle: methylcellulose (MC)): 123 % of control
- T/C (dose: 0.65 mg/kg/injection, schedule: Q01DX Z (sc), vehicle: saline): 168 % of control
- T/C (dose: 1.08 mg/kg/injection, schedule: Q01DX Z (sc), vehicle: methylcellulose (MC)): 247 % of control
- T/C (dose: 1.08 mg/kg/injection, schedule: Q01DX Z (sc), vehicle: saline): 273 % of control
- T/C (dose: 1.8 mg/kg/injection, schedule: Q01DX Z (sc), vehicle: methylcellulose (MC)): 300 % of control
- T/C (dose: 1.8 mg/kg/injection, schedule: Q01DX Z (sc), vehicle: saline): 420 % of control and 526 % of control
- T/C (dose: 3.0 mg/kg/injection, schedule: Q01DX Z (sc), vehicle: methylcellulose (MC)): 309 % of control
- T/C (dose: 3.0 mg/kg/injection, schedule: Q01DX Z (sc), vehicle: saline): 365 % of control and 463 % of control
- T/C (dose: 5.0 mg/kg/injection, schedule: Q01DX001 (sc), vehicle: saline): 157 % of control
- T/C (dose: 5.0 mg/kg/injection, schedule: Q01DX Z (sc), vehicle: saline): 270 % of control and 310 % of control
- T/C (dose: 5.0 mg/kg/injection, schedule: Q07DX Z (sc), vehicle: saline): 200 % of control
- T/C (dose: 8.4 mg/kg/injection, schedule: Q01DX001 (sc), vehicle: saline): 178 % of control
- T/C (dose: 8.4 mg/kg/injection, schedule: Q01DX Z (sc), vehicle: saline): 170 % of control
- T/C (dose: 8.4 mg/kg/injection, schedule: Q07DX Z (sc), vehicle: saline): 289 % of control
- T/C (dose: 14.0 mg/kg/injection, schedule: Q01DX001 (sc), vehicle: saline): 178 % of control
- T/C (dose: 14.0 mg/kg/injection, schedule: Q01DX Z (sc), vehicle: saline): 120 % of control
- T/C (dose: 14.0 mg/kg/injection, schedule: Q07DX Z (sc), vehicle: saline): 257 % of control
- T/C (dose: 23.0 mg/kg/injection, schedule: Q01DX Z (sc), vehicle: saline): 110 % of control
- T/C (dose: 23.0 mg/kg/injection, schedule: Q07DX Z (sc), vehicle: saline): 152 % of control
